Data reported in patent US20110207729A1, “BICYCLIC ACYLGUANIDINE DERIVATIVE” (ASTELLAS PHARMA INC., priority 2007, published 2011).
Counter-ions that a name gives are not always drawn.

Columns and labels:
[1] = molecular target: T1, human 5-HT5A receptor (Homo sapiens, UniProt P47898); experiment: Test on a human 5-HT5A receptor binding inhibition ([3H]5-CT); conditions: membrane from HEK293 cells expressing human 5-HT5A receptor; Ki calculated from IC50 and Kd 4.95 nM
T1 construct: expressed in transfected cells; membrane preparation
Method in brief: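 Membranes came from G418-selected HEK293 cells expressing human 5-HT5A, in Tris pH 7.4 with MgSO4 and EDTA. They were preincubated 15 min at RT with compound, then 2 nM [3H]5-CT solution was added for 60 min at 37 °C, followed by GF/C filtration and counting. IC50 used 1 µM 5-CT as 100%; Ki by Cheng–Prusoff (Kd 4.95 nM, Scatchard).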

[2] = system: Male ICR mouse; experiment: Hyperactivity caused by MK-801 in mice, infrared motion measurement; type: in vivo; conditions: oral, MK-801 0.3 mg/kg i.p., P<0.05
Protocol: (§1) Various Drug Evaluations on a Drug for Increasing the Motion of Mice (methamphetamine, MK-801) (Radiated Infrared Motion Measurement)
(§2) An effect of the compound (I) on improvement on schizophrenia by was evaluated by measuring the inhibited motion through the administration of the compound in a model having a symptom caused by methamphetamine (which is hereinafter simply referred to MAP) and MK-801.
(§3) An animal was taken out of a breeding cage, orally administered with a compound to be tested, and then placed into a cage for breeding. After 30 minutes, the animal was put into a cage for measurement, and the motion with the compound to be tested alone was measured. Further, after 30 to 90 minutes, the animal was taken out, and intraperitoneally administered with a drug for increasing the motion (MAP; 1 mg/kg or MK-801; 0.3 mg/kg, dissolved in a physiological saline, respectively). Then, the motion for a certain period of time (60 minutes) was measured by using a motion measurement device (CompACT AMS from Muromachi Kikai Co., Ltd.) by means of an infrared sensor.
(§4) For a normal mouse (a mouse administered with physiological saline) and a mouse administered with a drug for increasing the motion, a Student's T test was performed for evaluation for each interval. […]

[3] = system: Male ICR mouse; experiment: Hyperactivity caused by methamphetamine (MAP) in mice, infrared motion measurement; type: in vivo; conditions: dose of 0.03 mg/kg, oral; MAP 1 mg/kg i.p.; P<0.05
Protocol: as §1, §2, §3, §4

[4] = system: Male ddY mouse; experiment: Spontaneous alternation behavior (Y-maze) impaired by Scoporamine in mice; type: in vivo; conditions: dose of 0.03 mg/kg, oral, Scoporamine 0.5 mg/kg i.p., p<0.05
Protocol: An improvement effect for spontaneous alternation behavior caused by Scoporamine or MK-801 in mice
An effect of the compound (I) on improvement on cognitive impairment was evaluated by using a known performance test method as a model with short-term learning disorder.
The compound to be tested was administered orally 10 to 30 minutes before the test, and 0.5 mg/kg Scoporamine or 0.15 mg/kg MK-801 (for a normal group, physiological saline) was administered intraperitoreally, and the test was performed after 20 minutes. […]
A mouse was placed at the end of one arm of a Y-maze having arms with the same length in three directions, and then explored freely and the number of arm entries was counted for 8 minutes. […] The ratio of the number of the behaviors to the total number of entries was calculated as an alternation rate by the following formula: […]
If a significant difference between the normal group and the control group (Student's t test) was approved in the alternation rate (%), it was considered to have learning disorder by the administration of Scoporamine or MK-801. By carrying out a Dunnett's test on the group administered with the compound to be tested relative to the control group, the presence or absence of an action of the compound to be tested on learning disorder was evaluated. […]

T1 sequence (P47898 whole entry): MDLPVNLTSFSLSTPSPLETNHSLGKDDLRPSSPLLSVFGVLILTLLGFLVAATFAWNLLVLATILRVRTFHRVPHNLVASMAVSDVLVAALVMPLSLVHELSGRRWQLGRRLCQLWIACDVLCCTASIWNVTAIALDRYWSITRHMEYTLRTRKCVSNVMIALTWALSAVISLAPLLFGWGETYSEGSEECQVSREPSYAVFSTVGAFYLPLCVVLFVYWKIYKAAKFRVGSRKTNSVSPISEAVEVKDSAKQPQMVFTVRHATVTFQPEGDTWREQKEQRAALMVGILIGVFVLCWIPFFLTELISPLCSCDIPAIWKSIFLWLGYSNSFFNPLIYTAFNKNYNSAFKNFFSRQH

Ki [1] [nM]	Compound	further results
0.3 to 3	COc1ccccc1C1=CCCc2ccc(C(=O)N=C(N)N)cc21 [Example 2-06]	inhibition of hyperactivity caused by MK-801 ([2]; dose of 0.03 mg/kg): significantly inhibited
0.3 to 3	Cc1ccc(C2=CCOc3ccc(C(=O)N=C(N)N)cc32)c(F)c1 [Example 1-47]	inhibition of hyperactivity caused by MK-801 ([2]; dose of 0.1 mg/kg): significantly inhibited
0.3 to 3	NC(N)=NC(=O)c1ccc2c(c1)C(c1ccccc1)=CCC2 [Example 2-37]	inhibition of hyperactivity caused by methamphetamine [3]: significantly inhibited; improvement of alternation rate impaired by Scoporamine [4]: significantly improved
3 to 30	NC(N)=NC(=O)c1ccc2c(c1)C(c1cc(F)cc(F)c1)=CCO2 [Example 1-46]	
0.3 to 3	COc1cc(F)ccc1C1=CCCc2ccc(C(=O)N=C(N)N)cc21 [Example 2-54]	
3 to 30	COc1ccc(-c2csc3ccc(C(=O)N=C(N)N)cc23)cc1 [Example 3-24]	
30 to 300	CCCC1=C(c2ccccc2)c2cc(C(=O)N=C(N)N)ccc2CC1 [Example 2-116]	
30 to 300	COc1ccccc1C1=CCCCc2ccc(C(=O)N=C(N)N)cc21 [Example 3-06]	
30 to 300	NC(N)=NC(=O)c1ccc2c(c1)C(c1cncc(F)c1)=CCC2 [Example 2-123]	
0.3 to 3	CC1=C(c2ccc(C#N)cc2)c2cc(C(=O)N=C(N)N)ccc2CC1 [Example 2-59]	
30 to 300	NC(N)=NC(=O)c1ccc2c(c1)C(c1ccccc1OC(F)(F)F)=CCC2 [Example 2-98]	
3 to 30	NC(N)=NC(=O)c1cc(F)c2c(c1)C(c1c(F)cc(F)cc1F)=CCO2 [Example 1-85]	
3 to 30	CC1(C)C=C(c2c(F)cccc2F)c2cc(C(=O)N=C(N)N)ccc2O1 [Example 1-109]	
3 to 30	NC(N)=NC(=O)c1ccc2c(c1)C(c1cc(F)ccc1Cl)=CCC2 [Example 2-169]	
0.3 to 3	COc1cc(C#N)ccc1C1=C(F)CCc2ccc(C(=O)N=C(N)N)cc21 [Example 2-166]	
3 to 30	N#Cc1cccc(F)c1C1=CCCc2ccc(C(=O)N=C(N)N)cc21 [Example 2-180]	
0.3 to 3	NC(N)=NC(=O)c1ccc2c(c1)C(c1ccccc1)=C(F)CC2 [Example 2-43]	
30 to 300	CC(C)Oc1ccc(C2=CCCc3ccc(C(=O)N=C(N)N)cc32)cc1 [Example 2-88]	
3 to 30	NC(N)=NC(=O)c1ccc2c(c1)C(c1cc(F)c(F)cc1F)=CCO2 [Example 1-53]	
30 to 300	NC(N)=NC(=O)c1ccc2c(c1)C(c1ccc(Oc3ccccc3)cc1)=CCC2 [Example 2-07]	
30 to 300	NC(N)=NC(=O)c1ccc2c(c1)C(c1cncc(Cl)c1)=CCC2 [Example 2-150]	
30 to 300	CC1C=C(c2cccnc2F)c2cc(C(=O)N=C(N)N)ccc2O1 (centres unmarked) [Example 1-134]	
0.3 to 3	Cc1ccc(C2=CCOc3ccc(C(=O)N=C(N)N)cc32)c(Cl)c1 [Example 1-91]	
30 to 300	COc1ccccc1C1=CCSc2ccc(C(=O)N=C(N)N)cc21 [Example 3-18]	
30 to 300	COc1cccc(C2=CCCc3ccc(C(=O)N=C(N)N)cc32)c1C#N [Example 2-181]	
3 to 30	COCCN/C(N)=N/C(=O)c1ccc2c(c1)C(c1c(F)cccc1F)=CCO2 [Example 1-03, N-{1-amino[(2-methoxyethyl)amino]methylene}-4-(2,6-difluorophenyl)-2H-chromene-6-carboxamide hydrochloride]	
3 to 30	Cc1cc(C)c(C2=CCCc3ccc(C(=O)N=C(N)N)cc32)c(C)c1 [Example 2-69]	
3 to 30	NC(N)=NC(=O)c1ccc2c(c1)C(c1ccc(F)cc1F)=C(F)CC2 [Example 2-90]	
